Source: US5780509A, “Compound bearing two, 2,6-diiodophenol-4-YL groups and diagnostic drug for iodine allergy” (Muromachi Kagaku Kogyo Kaisha, Ltd., priority 1994, dated 1998)
Non-standard residues stand in square brackets, D forms with d. Residues, ends and D or L forms follow the SMILES beside them. No end group written: not given here. Tyr(3,5-I2) = N[C@@H](Cc1cc(I)c(O)c(I)c1)C(=O)O

Legend:
[1] = tested on: guinea-pigs immunized with iodine (iodine-sensitized) and non-sensitized guinea-pigs; assay: Active cutaneous anaphylaxis (ACA) reaction, elicitation antigenicity; format: in vivo, guinea-pig (male SPF, Hartley strain); parameters: key to Mean diameter of blue spots, non-sensitized guinea-pig / Mean diameter of blue spots, iodine-sensitized guinea pig (second value) / Mean diameter of blue spots, iodine-sensitized guinea pig (first value): --: Negative response; **: Weak response; settings: for Mean diameter of blue spots, iodine-sensitized guinea pig (first value) / Mean diameter of blue spots, iodine-sensitized guinea pig (second value) / Mean diameter of blue spots, non-sensitized guinea-pig: 30 min; for ACA reaction (in words): intradermal injection, guinea-pigs sensitized with iodine
From the text: The elicitation antigenicity of iodinated tyrosine derivatives was studied in the bases of the active cutaneous anaphylaxis (ACA) reaction in guinea-pigs immunized with iodine.
Animals: Male SPF guinea-pigs of Hartley strain, weighing 300~350 g were purchased from Charles River Japan Co., Ltd. These were immunized after having been acclimated for one week.
Sensitization: A solution of iodine potassium iodide (Wako Junyaku, special grade reagent) and complete Freund's adjuvant (Difco) were mixed in equal amounts to form an emulsion. This was administered subcutaneously into the back of guinea-pigs at a dose of 2 mg of iodine per animal 3 times at intervals of 2 weeks. Active cutaneous anaphylaxis (ACA) was elicited 2 weeks after the last sensitization injection.
ACA Induction: 2% Evans blue physiological solution (0.5 ml/animal) was administered intravenously to guinea-pigs, and immediately thereafter 0.1 ml of an elicitation antigen was administered intradermally into the back, and after 30 min. the existence of pigment leakage at the intradermally injected sites was observed.
Elicitation antigen: Iodinated dityrosine, iodinated trityrosine, iodinated dityrosylphenylalanine were administered intracutaneously at 0.1 ml/site. Guinea-pig serum albumin (fraction V: Sigma) was iodinated and used as a positive control. Corresponding noniodinated ones were also administered intradermally as negative controls.
Iodination reaction: To a 50 mM boric acid buffer solution (pH 9.5) of 10 mg/ml of dityrosine, trityrosine, or dityrosylphenylalanine (all produced by Sigma Co., Ltd.) or guinea-pig serum albumin (abbreviated hereafter as GSA), a 0.5M solution of iodine was added at a ratio of 10:1, and these were reacted at 37 C. overnight. The excess iodine in the reaction mixture was reduced by adding sodium thiosulfate (Nakarai Chemical Co., Ltd.). For purification of the iodinated tyrosine derivatives, the reaction mixture was extracted with ethyl acetate and dried with magnesium sulfate, and hexane was added to obtain crystals. For purification of the iodinated GSA, the reaction mixture was purified by passing it through a Sephadex G25 column.

[2] = tested on: anti-iodine antibody; assay: ELISA inhibition on anti-iodine antibody (single concentration); format: binding, guinea-pig; parameters: key to ELISA inhibitory activity, judgment: +: a compound had inhibitory activity; -: a compound did not have inhibitory activity
Experimental: (§1) Guinea-pigs were immunized with iodine by injecting subcutaneously 1 mg of iodine containing potassium iodide solution treated with complete Freund's adjuvant seven times at intervals of 2 weeks, and anti-iodine antiserum was obtained from these animals. Antibody titers of the sera were determined by enzyme linked immunosorbent assay (ELISA) using 96 well microplate coated with iodinated guinea pig serum albumin (I-GSA) ELISA inhibition activities of the following compounds were studied. The compounds used were potassium iodide, tyrosine and its derivatives such as L-tyrosine, monoiodo-L-tyrosine, diiodotyrosine, hexaiodo-L-trityrosine, L-hexatyrosine and 12 iodo-L-hexatyrosine, and iodinated X-ray contrast media such as amidotrizoic acid, iodamide, ioxaglic acid, iohexol, iopamidol and iomeprol.
(§2) ELISA inhibition study was performed as follows. Antibody concentration of anti-iodine antiserum gave the maximum optical density in ELISA till one hundredfold serum dilution. Accordingly, seven steps of twofold serial dilution of anti-iodine antiserum, starting from 50-fold serum dilution, were made with physiological saline as a diluent. To each of the serially diluted sera, were added equal volume of solution containing each of the test compounds described above. After overnight incubation at 4 C, antibody activity was determined by ELISA. Phosphate buffered physiological saline (PBS) was used as a control. ELISA inhibitory activities of the test compounds were determined at the serum dilution which gave about 50% of the maximum optical density (OD415nm =2.6) of ELISA of control at serum dilution of one hundredfold. The inhibitory activity was calculated by the following calculation formula.
Inhibition rate=[1-Optical density under test compouund/Optical density

[3] = tested on: anti-iodine antibody; assay: ELISA inhibition potency (OD50) on anti-iodine antibody; format: binding, guinea-pig; settings: serial twofold dilution, equal volume of 50-fold diluted anti-iodine antiserum; read-out: Inhibitory activity (OD50): concentration which decreased optical density of ELISA to a half of the control
Experimental: as §1, §2
In the next, ELISA inhibition study was undertaken to determine the potency of ELISA inhibitory activity of active compounds. […] The inhibitory activity was expressed as the concentration which decreased optical density of ELISA to a half (OD50) of the control.

With `N[C@@H](Cc1cc(I)c(O)c(I)c1)C(=O)N[C@@H](Cc1cc(I)c(O)c(I)c1)C(=O)O` (H-[Tyr(3,5-I2)]-[Tyr(3,5-I2)]-OH) the “Mean diameter of blue spots, iodine-sensitized guinea pig (first value)” value (from here on “Mean diameter of blue spots … (first value)”) ([1]; 1 μg/site intradermal) was “--”, the “Mean diameter of blue spots, iodine-sensitized guinea pig (second value)” value (from here on “Mean diameter of blue spots … (second value)”) ([1]; 1 μg/site intradermal) was “--” and the “Mean diameter of blue spots, non-sensitized guinea-pig” value ([1]; 1 μg/site intradermal) was “--”. For the same compound, the “Mean diameter of blue spots … (first value)” value ([1]; 10 μg/site intradermal) was 5.0 mm, the “Mean diameter of blue spots … (second value)” value ([1]; 10 μg/site intradermal) was “--” and the “Mean diameter of blue spots, non-sensitized guinea-pig” value ([1]; 10 μg/site intradermal) was “--”. The “Mean diameter of blue spots … (first value)” value ([1]; 100 μg/site intradermal) was 7.0 mm, the “Mean diameter of blue spots … (second value)” value ([1]; 100 μg/site intradermal) was 5.0 mm and the “Mean diameter of blue spots, non-sensitized guinea-pig” value ([1]; 100 μg/site intradermal) was “--”. For the same compound, the “ACA reaction (in words)” value [1] was “ACA reaction was elicited”.
For `N[C@@H](Cc1cc(I)c(O)c(I)c1)C(=O)N[C@@H](Cc1cc(I)c(O)c(I)c1)C(=O)N[C@@H](Cc1cc(I)c(O)c(I)c1)C(=O)N[C@@H](Cc1cc(I)c(O)c(I)c1)C(=O)N[C@@H](Cc1cc(I)c(O)c(I)c1)C(=O)N[C@@H](Cc1cc(I)c(O)c(I)c1)C(=O)O` [12 iodo-L-hexatyrosine] (H-[Tyr(3,5-I2)][Tyr(3,5-I2)][Tyr(3,5-I2)][Tyr(3,5-I2)][Tyr(3,5-I2)][Tyr(3,5-I2)]-OH), the ELISA inhibition rate ([2]; 1 mM) was 94.3%, the “ELISA inhibitory activity, judgment” value ([2]; 1 mM) was “+” and the IC50 [3] was 125 µM.
In the case of `CC(=O)Nc1c(I)c(NC(C)=O)c(I)c(C(=O)O)c1I` [Amidotrizoic acid], the ELISA inhibition rate ([2]; 10 mM) is reported as 0.3% and the “ELISA inhibitory activity, judgment” value ([2]; 10 mM) is reported as “-”.
With `N[C@@H](Cc1cc(I)c(O)c(I)c1)C(=O)O` [Diiodo-L-tyrosine] the ELISA inhibition rate ([2]; 10 mM) was 100%, the “ELISA inhibitory activity, judgment” value ([2]; 10 mM) was “+” and the IC50 [3] was 5000 µM.
With `N[C@@H](Cc1ccc(O)cc1)C(=O)N[C@@H](Cc1ccc(O)cc1)C(=O)N[C@@H](Cc1ccccc1)C(=O)O` [Dityrosylphenylalanine, L-tyrosyl-L-tyrosylphenylalanine, reference compound] (H-Tyr-Tyr-Phe-OH) the “Mean diameter of blue spots … (first value)” value ([1]; 1000 μg/site intradermal) was “--”, the “Mean diameter of blue spots … (second value)” value ([1]; 1000 μg/site intradermal) was “--” and the “Mean diameter of blue spots, non-sensitized guinea-pig” value ([1]; 1000 μg/site intradermal) was “--”.
In the case of `CC(=O)NCc1c(I)c(NC(C)=O)c(I)c(C(=O)O)c1I` [Iodamide], the ELISA inhibition rate ([2]; 10 mM) is reported as 3.5% and the “ELISA inhibitory activity, judgment” value ([2]; 10 mM) is reported as “+”.
In the case of `N[C@@H](Cc1cc(I)c(O)c(I)c1)C(=O)N[C@@H](Cc1cc(I)c(O)c(I)c1)C(=O)N[C@@H](Cc1ccccc1)C(=O)O` [Iodinated dityrosylphenylalanine] (H-[Tyr(3,5-I2)]-[Tyr(3,5-I2)]-Phe-OH), the “Mean diameter of blue spots … (first value)” value ([1]; 1 μg/site intradermal) is reported as “--”, the “Mean diameter of blue spots … (second value)” value ([1]; 1 μg/site intradermal) is reported as “--” and the “Mean diameter of blue spots, non-sensitized guinea-pig” value ([1]; 1 μg/site intradermal) is reported as “--”. The “Mean diameter of blue spots … (first value)” value ([1]; 10 μg/site intradermal) was 7.0 mm, the “Mean diameter of blue spots … (second value)” value ([1]; 10 μg/site intradermal) was “--” and the “Mean diameter of blue spots, non-sensitized guinea-pig” value ([1]; 10 μg/site intradermal) was “--”. The “Mean diameter of blue spots … (first value)” value ([1]; 100 μg/site intradermal) was 8.0 mm, the “Mean diameter of blue spots … (second value)” value ([1]; 100 μg/site intradermal) was 3.0 mm and the “Mean diameter of blue spots, non-sensitized guinea-pig” value ([1]; 100 μg/site intradermal) was “--”. For the same compound, the “ACA reaction (in words)” value [1] was “ACA reaction was elicited”.
`CC(=O)N(CC(O)CO)c1c(I)c(C(=O)NCC(O)CO)c(I)c(C(=O)NCC(O)CO)c1I` (stereo not shown) [Iohexol] was tested, and the ELISA inhibition rate ([2]; 10 mM) was -5.0% and the “ELISA inhibitory activity, judgment” value ([2]; 10 mM) was “+”.
In the case of `CN(C(=O)CO)c1c(I)c(C(=O)NCC(O)CO)c(I)c(C(=O)NCC(O)CO)c1I` (stereo not shown) [Iomeprol], the ELISA inhibition rate ([2]; 10 mM) is reported as -1.8% and the “ELISA inhibitory activity, judgment” value ([2]; 10 mM) is reported as “+”.
For `C[C@H](O)C(=O)Nc1c(I)c(C(=O)NC(CO)CO)c(I)c(C(=O)NC(CO)CO)c1I` [Iopamidol], the ELISA inhibition rate ([2]; 10 mM) was -6.5% and the “ELISA inhibitory activity, judgment” value ([2]; 10 mM) was “+”.
For `CNC(=O)c1c(I)c(C(=O)NCC(=O)Nc2c(I)c(C(=O)O)c(I)c(C(=O)NCCO)c2I)c(I)c(N(C)C(C)=O)c1I` [Ioxaglic acid], the ELISA inhibition rate ([2]; 10 mM) was -9.4% and the “ELISA inhibitory activity, judgment” value ([2]; 10 mM) was “+”.
In the case of `N[C@@H](Cc1ccc(O)cc1)C(=O)O` [L-Tyrosine], the ELISA inhibition rate ([2]; 10 mM) is reported as -2.6% and the “ELISA inhibitory activity, judgment” value ([2]; 10 mM) is reported as “-”.
`N[C@@H](Cc1ccc(O)c(I)c1)C(=O)O` [Monoiodo-L-tyrosine] was tested, and the ELISA inhibition rate ([2]; 10 mM) was 5.6% and the “ELISA inhibitory activity, judgment” value ([2]; 10 mM) was “-”.
`[I-].[K+]` [Potassium iodide] was tested, and the ELISA inhibition rate ([2]; 10 mM) was 0% and the “ELISA inhibitory activity, judgment” value ([2]; 10 mM) was “-”.
For `N[C@@H](Cc1ccc(O)cc1)C(=O)N[C@@H](Cc1ccc(O)cc1)C(=O)N[C@@H](Cc1ccc(O)cc1)C(=O)O` [Trityrosine, trityrosine, reference compound] (H-Tyr-Tyr-Tyr-OH), the “Mean diameter of blue spots … (first value)” value ([1]; 1000 μg/site intradermal) was “--”, the “Mean diameter of blue spots … (second value)” value ([1]; 1000 μg/site intradermal) was “--” and the “Mean diameter of blue spots, non-sensitized guinea-pig” value ([1]; 1000 μg/site intradermal) was “--”.
`N[C@@H](Cc1ccc(O)cc1)C(=O)N[C@@H](Cc1ccc(O)cc1)C(=O)O` [reference compound] (H-Tyr-Tyr-OH) was tested, and the “Mean diameter of blue spots … (first value)” value ([1]; 1000 μg/site intradermal) was “--”, the “Mean diameter of blue spots … (second value)” value ([1]; 1000 μg/site intradermal) was “--” and the “Mean diameter of blue spots, non-sensitized guinea-pig” value ([1]; 1000 μg/site intradermal) was “--”.
In the case of YYYYYY [L-Hexatyrosine], the ELISA inhibition rate ([2]; 1 mM) is reported as 0% and the “ELISA inhibitory activity, judgment” value ([2]; 1 mM) is reported as “-”.
